Measurements as given in US12338256B2, “Aza-tetracyclic oxazepine compounds and uses thereof” (Genentech, Inc., priority 2022, dated 2025).
Like-named read-outs stand apart in the source and are kept apart here.

Assays:
[1] = test system: H1975 (KRAS wild type human lung adenocarcinoma cell line); experiment: KRAS 3D-Cell Proliferation Assay, H1975 (Example 503); format: cell-based; details: H1975 3D culture, 7 days, CellTiter-Glo 3D, read-out: Prolif H1975 3D ATP IC50
Experimental: (§1) Example 503: KRAS 3D-Cell Proliferation Assays. Cellular potencies of compounds are assessed by evaluating inhibition of proliferation in 3D cultures of homozygous mutant KRAS G12D human pancreatic cell lines (AsPC-1 and HPAC) as compared to a KRAS wild type human lung adenocarcinoma cell line (PC-9 and/or H1975). Cells are seeded into 384-well black round-bottom, ultra-low attachment assay plates in 50 uL cell growth medium (RPMI-1640 with 10% fetal bovine serum and 2 mM L-glutamine). After overnight incubation at 37° C. and 5% CO2, compounds solubilized in DMSO are added as dilution series to the wells in a total volume of 150 nL (0.3% DMSO final). The cells are incubated for 7 days at 37° C. and 5% CO2. Cell proliferation is quantitated by addition of 40 uL/well of CellTiter-GloÒ 3D (Promega), and the well contents are mixed 20× at high speed using liquid handling automation workstation (Bravo with 384-well head) and centrifuged at 1500 rpm for 2 minutes to eliminate bubbles. This reagent in combination with mechanical disruption releases the cellular ATP to promote activity in a luciferase-based enzyme/substrate chemiluminescent detection system. After a 30-minute incubation under ambient conditions with shaking and an additional 10 minutes without shaking, the luminescence is read on a plate reader (e.g., EnVision [PerkinElmer]). The results are normalized to percent inhibition based on the following control samples: DMSO (0% inhibition) and 1 μM staurosporine (100% inhibition). The normalized luminescence results are plotted against compound concentration, and the data are fit to a 4-parameter Hill equation to determine the IC50 values.

[2] = test system: HPAC (homozygous mutant KRAS G12D human pancreatic cell line); experiment: KRAS 3D-Cell Proliferation Assay, HPAC (Example 503); format: cell-based; details: HPAC 3D culture, 7 days, CellTiter-Glo 3D, read-out: Prolif HPAC 3D ATP IC50
Experimental: as §1

Which results are given for `Cc1c(F)c(N)cc(-c2nc3c4c(nc(OCC5CC6COCCN65)nc4c2F)N2C[C@H]4CC[C@H](N4)[C@H]2[C@H](C)O3)c1C(F)(F)F` (mixture of isomers) [159 (mixture), 5-((5S,5aS,6S,9R)-12-((4-Oxa-1-azabicyclo[4.2.0]octan-8-yl)methoxy)-1-fluoro-5-methyl-5a,6,7,8,9,10-hexahydro-5H-4-oxa-3,10a,11,13,14-pentaaza-6,9-methanonaphtho[1,8-ab]heptalen-2-yl)-2-fluoro-3-methyl-4-(trifluoromethyl)aniline]?
IC50 ([1]; Homo sapiens, NCI-H1975, 168 h): 3740 nM; IC50 ([2]; Homo sapiens, HPAC, 168 h): 17.9 nM

How did the IC50 ([1]; Homo sapiens, NCI-H1975, 168 h) turn out when `Cc1c(F)c(N)cc(-c2nc3c4c(nc(OCC5CCC6CN(C)C(=O)CN56)nc4c2F)N2C[C@H]4CC[C@H](N4)[C@H]2[C@H](C)O3)c1C(F)(F)F` (mixture of isomers) [Compound 124, 6-((((5S,5aS,6S,9R)-2-(5-Amino-4-fluoro-3-methyl-2-(trifluoromethyl)phenyl)-1-fluoro-5-methyl-5a,6,7,8,9,10-hexahydro-5H-4-oxa-3,10a,11,13,14-pentaaza-6,9-methanonaphtho[1,8-ab]heptalen-12-yl)oxy)methyl)-2-methylhexahydropyrrolo[1,2-a]pyrazin-3(4H)-one] was run?
The IC50 was 12200 nM.

And the IC50 ([2]; Homo sapiens, HPAC, 168 h)?
The IC50 was 293 nM.

With `Cc1c(F)c(N)cc(-c2nc3c4c(nc(OCC56CCN5CC(F)(F)C6)nc4c2F)N2C[C@H]4CC[C@H](N4)[C@H]2[C@H](C(F)(F)F)O3)c1C(F)(F)F` (mixture of isomers) [Compound 244, 5-((5R,5aS,6S,9R)-12-((3,3-Difluoro-1-azabicyclo[3.2.0]heptan-5-yl)methoxy)-1-fluoro-5-(trifluoromethyl)-5a,6,7,8,9,10-hexahydro-5H-4-oxa-3,10a,11,13,14-pentaaza-6,9-methanonaphtho[1,8-ab]heptalene-2-yl)-2-fluoro-3-methyl-4-(trifluoromethyl)aniline] as the compound, how does the IC50 ([1]; Homo sapiens, NCI-H1975, 168 h) read?
Its IC50 is 258 nM.

And the IC50 ([2]; Homo sapiens, HPAC, 168 h)?
Its IC50 is 6.14 nM.

For `Cc1nc(N)cc(-c2nc3c4c(nc(OCC5(CN6CC7CC(F)(F)C7C6)CC5)nc4c2F)N2C[C@H]4CC[C@H](N4)[C@H]2[C@H](C)O3)c1C(F)(F)F` (mixture of isomers) [Compound 264, 4-((5S,5aS,6S,9R)-12-((1-((6,6-difluoro-3-azabicyclo[3.2.0]heptan-3-yl)methyl)cyclopropyl)methoxy)-1-fluoro-5-methyl-5a,6,7,8,9,10-hexahydro-5H-4-oxa-3,10a,11,13,14-pentaaza-6,9-methanonaphtho[1,8-ab]heptalene-2-yl)-6-methyl-5-(trifluoromethyl)pyridin-2-amine], which IC50 ([1]; Homo sapiens, NCI-H1975, 168 h) is on record?
Its IC50 is 11000 nM.

What about the IC50 ([2]; Homo sapiens, HPAC, 168 h) of the same compound?
Its IC50 is 5.56 nM.

For `Cc1c(F)c(N)cc(-c2nc3c4c(nc(OCC5CCC6CC(F)(F)CCN56)nc4c2F)N2CC4CCC(N4)C2C(C)O3)c1C(F)(F)F` (single isomer, unassigned) [119 (isomer 1)], which IC50 ([1]; Homo sapiens, NCI-H1975, 168 h) is on record?
Its IC50 is 3150 nM.

And the IC50 ([2]; Homo sapiens, HPAC, 168 h)?
The IC50 was 76.7 nM.

Which IC50 ([1]; Homo sapiens, NCI-H1975, 168 h) does the source give for `Cc1c(F)c(N)cc(-c2nc3c4c(nc(OC[C@@H]5CCC6CC(F)(F)CCN65)nc4c2F)N2C[C@H]4CC[C@H](N4)[C@H]2[C@H](C)O3)c1C(F)(F)F` (single isomer, unassigned) [119 (isomer 2)] here?
The IC50 was 1700 nM.

And the IC50 ([2]; Homo sapiens, HPAC, 168 h)?
Its IC50 is 7.95 nM.

How did the IC50 ([2]; Homo sapiens, HPAC, 168 h) turn out when `Cc1c(F)c(N)cc(-c2nc3c4c(nc(OCC5COCC6CCCN65)nc4c2F)N2CC4CCC(N4)C2C(C)O3)c1C(F)(F)F` (single isomer, unassigned) [121 (isomer 1)] was run?
The IC50 was 12.5 nM.

Which IC50 ([1]; Homo sapiens, NCI-H1975, 168 h) does the source give for `Cc1c(F)c(N)cc(-c2nc3c4c(nc(OC[C@@]5(CCF)CCCN5C)nc4c2F)N2C[C@H]4CC[C@H](N4)[C@H]2[C@H](C)O3)c1C(F)(F)F` (single isomer, unassigned) [127 (isomer 1)] here?
The IC50 was 6080 nM.

What about the IC50 ([2]; Homo sapiens, HPAC, 168 h) of the same compound?
Its IC50 is 50.1 nM.

With `Cc1c(F)c(N)cc(-c2nc3c4c(nc(OCC5(CCF)CCCN5C)nc4c2F)N2CC4CCC(N4)C2C(C)O3)c1C(F)(F)F` (single isomer, unassigned) [127 (isomer 2)] as the compound, how does the IC50 ([1]; Homo sapiens, NCI-H1975, 168 h) read?
Its IC50 is 7970 nM.

What about the IC50 ([2]; Homo sapiens, HPAC, 168 h) of the same compound?
The IC50 was 57.5 nM.

With `Cc1c(F)c(N)cc(-c2nc3c4c(nc(OCC5CCC6CN(C)C(=O)CN56)nc4c2F)N2CC4CCC(N4)C2C(C)O3)c1C(F)(F)F` (single isomer, unassigned) [131 (isomer 4)] as the compound, how does the IC50 ([1]; Homo sapiens, NCI-H1975, 168 h) read?
Its IC50 is 6810 nM.

`Cc1c(F)c(N)cc(-c2nc3c4c(nc(OC[C@@H]5CC[C@@H]6C[C@@H](C(=O)N(C)C)CCN65)nc4c2F)N2C[C@H]4CC[C@H](N4)[C@H]2[C@H](C)O3)c1C(F)(F)F` (single isomer, unassigned) [133 (isomer 1)] was tested. Which IC50 ([1]; Homo sapiens, NCI-H1975, 168 h) did it give?
Its IC50 is 2630 nM.

What about the IC50 ([2]; Homo sapiens, HPAC, 168 h) of the same compound?
Its IC50 is 26.7 nM.

`Cc1c(F)c(N)cc(-c2nc3c4c(nc(OC[C@@H]5CC[C@@H]6CC(C(=O)N(C)C)CCN65)nc4c2F)N2C[C@H]4CC[C@H](N4)[C@H]2[C@H](C)O3)c1C(F)(F)F` (single isomer, unassigned) [133 (isomer 3)] was tested. Which IC50 ([1]; Homo sapiens, NCI-H1975, 168 h) did it give?
Its IC50 is 659 nM.

What about the IC50 ([2]; Homo sapiens, HPAC, 168 h) of the same compound?
Its IC50 is 36.3 nM.

How did the IC50 ([1]; Homo sapiens, NCI-H1975, 168 h) turn out when `Cc1c(F)c(N)cc(-c2nc3c4c(nc(OCC5CCC6CC(C(=O)N(C)C)CCN56)nc4c2F)N2CC4CCC(N4)C2C(C)O3)c1C(F)(F)F` (single isomer, unassigned) [133 (isomer 4)] was run?
The IC50 was 2080 nM.

And the IC50 ([2]; Homo sapiens, HPAC, 168 h)?
Its IC50 is 14.1 nM.

Which IC50 ([1]; Homo sapiens, NCI-H1975, 168 h) does the source give for `Cc1c(F)c(N)cc(-c2nc3c4c(nc(OC[C@]56COC[C@H]5CCN6C)nc4c2F)N2C[C@H]4CC[C@H](N4)[C@H]2[C@H](C)O3)c1C(F)(F)F` (single isomer, unassigned) [134 (isomer 1)] here?
Its IC50 is 2550 nM.

What about the IC50 ([2]; Homo sapiens, HPAC, 168 h) of the same compound?
The IC50 was 8.59 nM.

Which IC50 ([1]; Homo sapiens, NCI-H1975, 168 h) does the source give for `Cc1c(F)c(N)cc(-c2nc3c4c(nc(OCC56COCC5CCN6C)nc4c2F)N2CC4CCC(N4)C2C(C)O3)c1C(F)(F)F` (single isomer, unassigned) [134 (isomer 2)] here?
The IC50 was 1940 nM.

What about the IC50 ([2]; Homo sapiens, HPAC, 168 h) of the same compound?
Its IC50 is 7.45 nM.

What does the source list for `Cc1c(F)c(N)cc(-c2nc3c4c(nc(OC[C@@]56CCCN5CCN(C)C6=O)nc4c2F)N2C[C@H]4CC[C@H](N4)[C@H]2[C@H](C)O3)c1C(F)(F)F` (single isomer, unassigned) [137 (isomer 1)]?
IC50 ([1]; Homo sapiens, NCI-H1975, 168 h): 20000 nM; IC50 ([2]; Homo sapiens, HPAC, 168 h): 127 nM

For `Cc1c(F)c(N)cc(-c2nc3c4c(nc(OCC56CCCN5CCN(C)C6=O)nc4c2F)N2C[C@H]4CC[C@H](N4)[C@H]2[C@H](C)O3)c1C(F)(F)F` (single isomer, unassigned) [137 (isomer 2)], which IC50 [1] is on record?
The IC50 was 20000 nM.

For `Cc1c(F)c(N)cc(-c2nc3c4c(nc(OCC56CCCN5CC(F)C6F)nc4c2F)N2CC4CCC(N4)C2C(C)O3)c1C(F)(F)F` (single isomer, unassigned) [143 (isomer 3)], which IC50 ([2]; Homo sapiens, HPAC, 168 h) is on record?
Its IC50 is 4.77 nM.

How did the IC50 ([2]; Homo sapiens, HPAC, 168 h) turn out when `Cc1c(F)c(N)cc(-c2nc3c4c(nc(OCC5CC6COCCN65)nc4c2F)N2C[C@H]4CC[C@H](N4)[C@H]2[C@H](C)O3)c1C(F)(F)F` (single isomer, unassigned) [159 (diast. 1)] was run?
The IC50 was 36.9 nM.

With `Cc1c(F)c(N)cc(-c2nc3c4c(nc(OC[C@]5(CN6C[C@H]7C[C@@H]6CO7)CC5(F)F)nc4c2F)N2C[C@H]4CC[C@H](N4)[C@H]2[C@H](C)O3)c1C(F)(F)F` (single isomer, unassigned) [166 a] as the compound, how does the IC50 [2] read?
Its IC50 is 1.44 nM.

How did the IC50 ([1]; Homo sapiens, NCI-H1975, 168 h) turn out when `C[C@@H]1Oc2nc(-c3cc(N)c(F)cc3[C@H](C)C(F)F)c(F)c3nc(OC[C@@]45CCCN4C[C@H](F)C5)nc(c23)N2C[C@H]3CC[C@H](N3)[C@@H]12` (single isomer, unassigned) [181 (isomer 1)] was run?
The IC50 was 12300 nM.

Which IC50 [2] does the source give for `Cc1c(F)c(N)cc(-c2nc3c4c(nc(OC[C@@]56CCCN5C[C@H](F)C6)nc4c2F)N2C[C@H]4CC[C@H](N4)C2C(C(F)F)O3)c1C(F)(F)F` (single isomer, unassigned) [238 (isomer 2)] here?
The IC50 was 2000 nM.

Which IC50 ([2]; Homo sapiens, HPAC, 168 h) does the source give for `Cc1nc(N)cc(-c2nc3c4c(nc(OCC5N(C)CC56CC6(F)F)nc4c2F)N2CC4CCC(N4)C2C(C(F)(F)F)O3)c1C(F)(F)F` (single isomer, unassigned) [262 (isomer 2)] here?
Its IC50 is 123 nM.
